According to patent EP4467141A1, “PYRAZOLO-QUINOLINES AS SELECTIVE INHIBITORS OF GENOTOXIC STRESS-INDUCED IKK/NF- KB PATHWAYS FOR CANCER THERAPY” (Max-Delbrück-Centrum für Molekulare Medizin in der …, priority 2023, dated 2024):

What was measured:
Test in all cases: Kinase panel study
Type in all cases: biochemical
Details in all cases: read-out: Percentage of inhibition; for inhibition at 1 µM: 1000nM; for inhibition at 10 µM: 10000nM
CDK4/cyclin D3 = target: T1, CDK4/cyclin D3 (Homo sapiens, UniProt P11802)
T1 construct: purchased Thermo Fisher Scientific
Outline: (§1)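 In vitro, kinase panel; ZLyte or Adapta SOP; single-concentration testing (1 or 10 µM); output = % inhibition, plus IC50 in panel.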

CSNK1A1L = target: T2, CSNK1A1L (Homo sapiens, UniProt Q8N752)
T2 construct: purchased Thermo Fisher Scientific
T2 sequence (Q8N752 1-337): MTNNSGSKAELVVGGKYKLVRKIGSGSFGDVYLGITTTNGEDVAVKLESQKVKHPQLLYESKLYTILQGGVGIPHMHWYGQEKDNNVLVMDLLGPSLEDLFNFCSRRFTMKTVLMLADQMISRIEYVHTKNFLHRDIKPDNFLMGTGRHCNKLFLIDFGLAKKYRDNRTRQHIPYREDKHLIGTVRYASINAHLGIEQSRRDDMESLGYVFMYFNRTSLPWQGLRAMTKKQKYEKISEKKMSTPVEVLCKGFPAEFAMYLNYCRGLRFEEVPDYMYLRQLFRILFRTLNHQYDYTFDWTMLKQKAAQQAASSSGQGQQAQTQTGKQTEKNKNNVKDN
Outline: as §1

IKBKE (IKK epsilon) = target: T3, IKBKE (IKK epsilon) (Homo sapiens, UniProt Q14164)
T3 construct: purchased Thermo Fisher Scientific
T3 sequence (Q14164 1-716): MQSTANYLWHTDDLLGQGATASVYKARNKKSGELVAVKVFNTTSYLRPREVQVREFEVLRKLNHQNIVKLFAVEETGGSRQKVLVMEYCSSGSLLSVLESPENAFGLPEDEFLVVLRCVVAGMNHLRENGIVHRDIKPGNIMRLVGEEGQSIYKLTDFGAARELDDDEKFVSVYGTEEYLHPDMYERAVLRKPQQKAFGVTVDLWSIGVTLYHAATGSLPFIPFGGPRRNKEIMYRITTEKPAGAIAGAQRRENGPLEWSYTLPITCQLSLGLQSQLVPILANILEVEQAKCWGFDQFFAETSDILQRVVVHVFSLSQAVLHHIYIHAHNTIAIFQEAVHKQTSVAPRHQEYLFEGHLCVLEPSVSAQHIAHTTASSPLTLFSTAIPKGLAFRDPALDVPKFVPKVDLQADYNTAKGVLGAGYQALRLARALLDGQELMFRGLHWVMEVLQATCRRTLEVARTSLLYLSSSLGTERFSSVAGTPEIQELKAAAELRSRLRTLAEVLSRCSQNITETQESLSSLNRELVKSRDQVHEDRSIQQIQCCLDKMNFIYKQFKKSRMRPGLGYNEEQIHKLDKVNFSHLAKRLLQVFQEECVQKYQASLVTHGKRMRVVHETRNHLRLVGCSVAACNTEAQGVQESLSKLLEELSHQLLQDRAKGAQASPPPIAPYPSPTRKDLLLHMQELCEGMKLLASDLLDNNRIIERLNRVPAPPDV
Outline: as §1

MAP4K4 (HGK) = target: T4, MAP4K4 (HGK) (Homo sapiens, UniProt O95819)
T4 construct: purchased Thermo Fisher Scientific
Outline: as §1

NUAK1 (ARK5) = target: T5, NUAK1 (ARK5) (Homo sapiens, UniProt O60285)
T5 construct: purchased Thermo Fisher Scientific
T5 sequence (O60285 1-661): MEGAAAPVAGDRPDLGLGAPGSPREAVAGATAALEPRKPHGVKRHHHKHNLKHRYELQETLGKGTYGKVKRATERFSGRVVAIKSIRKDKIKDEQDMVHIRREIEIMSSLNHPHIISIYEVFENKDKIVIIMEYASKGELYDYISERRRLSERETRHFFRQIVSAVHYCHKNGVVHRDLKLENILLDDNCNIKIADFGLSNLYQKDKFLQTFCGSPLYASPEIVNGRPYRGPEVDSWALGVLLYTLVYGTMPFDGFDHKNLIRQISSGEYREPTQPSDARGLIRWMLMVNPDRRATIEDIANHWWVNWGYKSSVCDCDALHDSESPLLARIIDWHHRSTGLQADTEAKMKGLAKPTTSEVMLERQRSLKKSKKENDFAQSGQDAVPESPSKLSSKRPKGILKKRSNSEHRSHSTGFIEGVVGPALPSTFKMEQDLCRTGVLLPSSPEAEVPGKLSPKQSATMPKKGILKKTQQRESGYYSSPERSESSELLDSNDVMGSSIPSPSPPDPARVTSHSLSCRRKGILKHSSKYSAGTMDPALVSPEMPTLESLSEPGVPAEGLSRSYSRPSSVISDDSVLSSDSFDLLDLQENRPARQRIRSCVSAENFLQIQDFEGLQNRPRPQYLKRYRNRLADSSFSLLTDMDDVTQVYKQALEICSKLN
Outline: as §1

T4 sequence (O95819 whole entry): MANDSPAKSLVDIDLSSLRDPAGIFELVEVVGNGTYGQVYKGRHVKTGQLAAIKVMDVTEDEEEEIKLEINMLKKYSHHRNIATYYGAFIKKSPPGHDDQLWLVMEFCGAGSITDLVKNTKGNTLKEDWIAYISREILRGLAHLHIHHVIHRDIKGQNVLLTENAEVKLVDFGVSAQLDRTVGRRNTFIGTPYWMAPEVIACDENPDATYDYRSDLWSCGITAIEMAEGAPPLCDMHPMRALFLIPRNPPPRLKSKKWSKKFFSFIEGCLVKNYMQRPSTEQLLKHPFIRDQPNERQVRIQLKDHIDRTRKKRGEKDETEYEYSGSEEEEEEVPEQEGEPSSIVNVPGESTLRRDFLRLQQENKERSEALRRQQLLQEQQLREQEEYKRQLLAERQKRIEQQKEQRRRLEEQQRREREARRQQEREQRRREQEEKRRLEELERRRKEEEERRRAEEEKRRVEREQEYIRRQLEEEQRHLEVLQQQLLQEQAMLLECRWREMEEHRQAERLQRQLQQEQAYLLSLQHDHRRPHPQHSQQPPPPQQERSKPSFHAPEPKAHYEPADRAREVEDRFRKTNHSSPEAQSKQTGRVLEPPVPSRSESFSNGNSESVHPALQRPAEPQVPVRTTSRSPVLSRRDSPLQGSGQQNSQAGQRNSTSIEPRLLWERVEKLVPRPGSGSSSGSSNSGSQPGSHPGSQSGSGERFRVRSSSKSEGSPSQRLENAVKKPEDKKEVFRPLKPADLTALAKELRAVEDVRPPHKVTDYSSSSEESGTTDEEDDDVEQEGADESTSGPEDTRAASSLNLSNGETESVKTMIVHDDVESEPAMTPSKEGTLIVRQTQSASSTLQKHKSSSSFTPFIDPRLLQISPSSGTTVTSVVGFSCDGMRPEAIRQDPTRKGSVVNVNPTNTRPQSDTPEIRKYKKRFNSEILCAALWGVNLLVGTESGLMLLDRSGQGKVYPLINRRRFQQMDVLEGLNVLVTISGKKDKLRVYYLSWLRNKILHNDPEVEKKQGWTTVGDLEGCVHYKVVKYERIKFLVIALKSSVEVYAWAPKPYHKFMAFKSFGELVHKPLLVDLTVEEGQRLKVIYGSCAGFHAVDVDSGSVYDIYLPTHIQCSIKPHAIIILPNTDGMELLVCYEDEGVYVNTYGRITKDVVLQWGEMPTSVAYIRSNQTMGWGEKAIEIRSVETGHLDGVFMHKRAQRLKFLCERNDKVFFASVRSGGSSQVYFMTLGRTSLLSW
T1 sequence (P11802 whole entry): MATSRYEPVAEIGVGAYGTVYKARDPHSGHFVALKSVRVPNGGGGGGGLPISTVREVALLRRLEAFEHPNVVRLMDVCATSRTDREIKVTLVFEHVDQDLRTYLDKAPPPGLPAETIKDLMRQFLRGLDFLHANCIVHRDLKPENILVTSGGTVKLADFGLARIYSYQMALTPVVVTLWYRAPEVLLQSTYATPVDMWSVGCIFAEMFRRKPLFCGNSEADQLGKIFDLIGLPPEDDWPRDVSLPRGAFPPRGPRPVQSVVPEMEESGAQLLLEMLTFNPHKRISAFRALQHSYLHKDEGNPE
T1 sequence (P30281 whole entry partner): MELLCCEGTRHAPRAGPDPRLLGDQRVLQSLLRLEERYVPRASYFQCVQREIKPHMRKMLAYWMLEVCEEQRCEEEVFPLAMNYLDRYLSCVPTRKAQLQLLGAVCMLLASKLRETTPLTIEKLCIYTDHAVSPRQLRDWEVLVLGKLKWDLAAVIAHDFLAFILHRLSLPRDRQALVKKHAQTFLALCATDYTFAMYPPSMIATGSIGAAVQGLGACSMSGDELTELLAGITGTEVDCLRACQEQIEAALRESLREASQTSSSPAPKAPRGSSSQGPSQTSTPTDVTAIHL

For `COc1ccc2c(c1OC)c(=O)n1c3ccc(O)cc3c3ccnc2c31` [MW01, 5-Hydroxy-10,11-dimethoxy-9H-benzo[c]indolo[3,2,1-ij][1,5]naphthyridin-9-one], the inhibition at 1 µM (CDK4/cyclin D3) was -2%, the inhibition at 10 µM (CDK4/cyclin D3) was -6% and the inhibition at 1 µM (CSNK1A1L) was 1%. The inhibition at 10 µM (CSNK1A1L) was 11%, the inhibition at 1 µM (IKBKE (IKK epsilon)) was 11% and the inhibition at 10 µM (IKBKE (IKK epsilon)) was 17%. It also gave an inhibition at 1 µM (MAP4K4 (HGK)) of 64%, an inhibition at 10 µM (MAP4K4 (HGK)) of 80% and an inhibition at 1 µM (NUAK1 (ARK5)) of 48%. The inhibition at 10 µM (NUAK1 (ARK5)) was 66%.
In the case of `COc1ccc2cc3c(N)nn(C(=O)c4cccc(N(C)C)c4)c3nc2c1` [MW05, (3-Amino-7-methoxypyrazolo[3,4-b]quinolin-1-yl)-[3-(dimethylamino)phenyl]methanone], the inhibition at 1 µM (CDK4/cyclin D3) is reported as -6%, the inhibition at 10 µM (CDK4/cyclin D3) is reported as -8% and the inhibition at 1 µM (CSNK1A1L) is reported as 1%. It also gave an inhibition at 10 µM (CSNK1A1L) of 1%, an inhibition at 1 µM (IKBKE (IKK epsilon)) of 8% and an inhibition at 10 µM (IKBKE (IKK epsilon)) of 6%. The inhibition at 1 µM (MAP4K4 (HGK)) was 9%, the inhibition at 10 µM (MAP4K4 (HGK)) was 11% and the inhibition at 1 µM (NUAK1 (ARK5)) was 6%. For the same molecule, the inhibition at 10 µM (NUAK1 (ARK5)) was 11%.
